From US20020137154A1, “Methods for improving cell growth and alcohol production during fermentation” (priority 2000, published 2002)

Test system: Klebsiella oxytoca P2
Experiment: Batch fermentation of Klebsiella oxytoca P2 in 1% CSL medium and xylose with acetaldehyde: ethanol production and cell growth
Type: cell-based
Settings: for Ethanol Production Maximum / Ethanol Production Maximum % Control / Ethanol yield / Initial Growth (OD @ 24 h) % Control / Initial Growth (OD @ 24 h) OD / Maximum Cell Density % Control / Maximum Cell Density OD / Maximum Cell Density Time / Time to completion / Volumetric Productivity % Control (based on Avg) / Volumetric Productivity % Control (based on Max) / Volumetric Productivity Average / Volumetric Productivity Maximum: K. oxytoca P2, 1% CSL+xylose
Procedure: Two types of media were tested: 1% CSL and Luria broth (LB). Each contained 97 g of either xylose or glucose per liter. Luria Broth consists of, per liter: 10 g Difco® Tryptone, 5 g Difco® Yeast Extract and 5 g NaCl. The 1% CSL medium consists of Corn Steep Liquor (1% w/v) plus mineral salts (mineral salts per liter: 1 g of KH2PO4. 0.5 g of K2HPO4, 3.1 g of (NH4)2SO4, 0.4 g of MgCl2·6H2), and 20 mg FeCl3·6H2O).
Luria Broth was prepared by autoclaving a 2× nutrient stock containing, per liter: 20 g Difco® Tryptone, 10 g Difo® Yeast Extract, and 10 g NaCl. Sugars (xylose or glucose) were autoclaved separately. A 1% CSL medium was prepared as follows: Commercial Corn Steep Liquor (CSL; 50% dry weight/50% water) was diluted with tap water to make a 20X stock containing 100 g dry weight of Corn Steep Liquor/L and was adjusted to pH 7.2 with NaOH (50%). After sterilization by autoclaving, the 20X CSL stock was clarified by centrifugation at 5000×g for 10 minutes. Magnesium was added as a 100× stock solution (40 g/L MgCl2·6H2O). Iron was added as a 1000× stock solution made by dissolving 20 g FeCl3·6H2O in 175 mL of HCl and adjusting to 1 L with sterile water. Nitrogen, sulfur and phosphorus were added using a 20× stock solution containing the following (per liter): 20 g of KH2PO4, 10 g of K2HPO4 and 62 g of (NH4)2SO4. Stock solutions containing minerals were sterilized separately by autoclaving. Final media was prepared by adding 750 mL of water to 1 L bottle containing 100 g of xylose or glucose. This solution was autoclaved, and stock solutions were added to provide a 1× concentration, and the final volume adjusted to 1 L. This broth was further diluted by the addition of supplements (acetaldehyde stock or distilled water) during fermentation with a resulting sugar content of 97 g/L.
Inocula were grown in same media used for fermentation and were prepared as follows. Three colonies from a fresh plate were used to inoculate seed cultures: 250-mL flask containing 100 mL medium. These cultures were grown with agitation (120 rpm) for 12-16 hours at 35° C. to a final OD550nm of approximately 2.0-2.5. Cells were harvested by centrifugation at 5000×g for 5 minutes, and resuspended in fresh media to an OD550nm of 0.1. The resulting suspension was distributed into 500-mL beakers containing 345 ml each of fermentation medium. Acetaldehyde was added as indicated. Batch fermentations (35° C., 100 rpm) were maintained at pH 6.5 by the automatic addition of 2N KOH. Cell mass, ethanol, and base addition (2N KOH) were recorded during 96 hours of incubation.
Cell mass was estimated by measuring OD550nm using Baush & Lomb® Spectronic 70 spectrophotometer. […] Ethanol was measured by gas chromatography using a Varian® 3400 CX gas chromatograph with 1-propanol as an internal standard.
This example describes the effect of the addition of acetaldehyde to 1% CSL and xylose medium, which has been inoculated with ethanologenic, cells, i.e., Klebsiella oxytoca P2.
Maximum ethanol production is shown in grams/liter (g/L). The ethanol yield is shown in grams of ethanol/grams of added sugar. Maximum volumetric productivity is shown in grams of ethanol/(liter)(hour). The average productivity is calculated form the start of fermentation to the completion of fermentation in grams ethanol/(liter)(hour).
Acetaldehyde was added to the fermentation medium at five different concentrations and time points. Where only one acetaldehyde value is provided, this amount of acetaldehyde was added at the start of fermentation only (i.e., 0.25 g/L acetaldehyde or 0.5 g/L). Where two or three additions are indicated, the first volume was added at the start of fermentation and additional doses of the nutrient compound were added after 8 hours of fermentation or at 8-hour intervals.

[1] = 2 × 0.25 g/L (start, after 8 hours)
[2] = 3 × 0.25 g/L (start, then 8-hour intervals)
[3] = K. oxytoca P2, CSL and xylose, 0.5 g/L at the start

**Q.** With `CC=O` [Acetaldehyde, acetaldehyde] as the molecule, how does the “Ethanol Production Maximum” value (0.25 g/L at start) read?
**A.** 25.43 g/L

**Q.** What about the “Ethanol Production Maximum % Control” value (0.25 g/L at start) of the same molecule?
**A.** 107.35%

**Q.** What about the Ethanol yield (0.25 g/L at start) of the same molecule?
**A.** 0.262 grams of ethanol/grams of added sugar

**Q.** And the “Initial Growth (OD @ 24 h) % Control” value (0.25 g/L at start)?
**A.** 93.90%

**Q.** What about the “Initial Growth (OD @ 24 h) OD” value (0.25 g/L at start) of the same molecule?
**A.** 3.54 OD

**Q.** And the “Maximum Cell Density % Control” value (0.25 g/L at start)?
**A.** 111.96%

**Q.** And the “Maximum Cell Density OD” value (0.25 g/L at start)?
**A.** 5.68 OD

**Q.** What about the “Maximum Cell Density Time” value (0.25 g/L at start) of the same molecule?
**A.** 72.00 h

**Q.** And the Time to completion (0.25 g/L at start)?
**A.** >96 h

**Q.** And the “Volumetric Productivity % Control (based on Avg)” value (0.25 g/L at start)?
**A.** 107.35%

**Q.** And the “Volumetric Productivity % Control (based on Max)” value (0.25 g/L at start)?
**A.** 135.46%

**Q.** And the “Volumetric Productivity Average” value (0.25 g/L at start)?
**A.** 0.265 grams ethanol/(liter)(hour)

**Q.** And the “Volumetric Productivity Maximum” value (0.25 g/L at start)?
**A.** 0.47 grams of ethanol/(liter)(hour)

**Q.** And the “Ethanol Production Maximum” value (0.5 g/L at start)?
**A.** 26.53 g/L

**Q.** What about the “Ethanol Production Maximum % Control” value (0.5 g/L at start) of the same molecule?
**A.** 111.98%

**Q.** And the Ethanol yield (0.5 g/L at start)?
**A.** 0.273 grams of ethanol/grams of added sugar

**Q.** And the “Initial Growth (OD @ 24 h) % Control” value (0.5 g/L at start)?
**A.** 69.39%

**Q.** And the “Initial Growth (OD @ 24 h) OD” value (0.5 g/L at start)?
**A.** 2.61 OD

**Q.** What about the “Maximum Cell Density % Control” value (0.5 g/L at start) of the same molecule?
**A.** 116.26%

**Q.** What about the “Maximum Cell Density OD” value (0.5 g/L at start) of the same molecule?
**A.** 5.89 OD

**Q.** And the “Maximum Cell Density Time” value (0.5 g/L at start)?
**A.** 96.00 h

**Q.** What about the Time to completion (0.5 g/L at start) of the same molecule?
**A.** >96 h

**Q.** And the “Volumetric Productivity % Control (based on Avg)” value (0.5 g/L at start)?
**A.** 111.98%

**Q.** What about the “Volumetric Productivity % Control (based on Max)” value (0.5 g/L at start) of the same molecule?
**A.** 147.11%

**Q.** And the “Volumetric Productivity Average” value (0.5 g/L at start)?
**A.** 0.276 grams ethanol/(liter)(hour)

**Q.** What about the “Volumetric Productivity Maximum” value (0.5 g/L at start) of the same molecule?
**A.** 0.51 grams of ethanol/(liter)(hour)

**Q.** What about the “Ethanol Production Maximum” value [1] of the same molecule?
**A.** 25.56 g/L

**Q.** What about the “Ethanol Production Maximum % Control” value [1] of the same molecule?
**A.** 107.88%

**Q.** What about the Ethanol yield [1] of the same molecule?
**A.** 0.263 grams of ethanol/grams of added sugar

**Q.** And the “Initial Growth (OD @ 24 h) % Control” value [1]?
**A.** 88.59%

**Q.** And the “Initial Growth (OD @ 24 h) OD” value [1]?
**A.** 3.34 OD

**Q.** And the “Maximum Cell Density % Control” value [1]?
**A.** 104.50%

**Q.** And the “Maximum Cell Density OD” value [1]?
**A.** 5.30 OD

**Q.** What about the “Maximum Cell Density Time” value [1] of the same molecule?
**A.** 96.00 h

**Q.** What about the Time to completion [1] of the same molecule?
**A.** >96 h

**Q.** What about the “Volumetric Productivity % Control (based on Avg)” value [1] of the same molecule?
**A.** 107.88%

**Q.** And the “Volumetric Productivity % Control (based on Max)” value [1]?
**A.** 126.68%

**Q.** What about the “Volumetric Productivity Average” value [1] of the same molecule?
**A.** 0.266 grams ethanol/(liter)(hour)

**Q.** What about the “Volumetric Productivity Maximum” value [1] of the same molecule?
**A.** 0.44 grams of ethanol/(liter)(hour)

**Q.** What about the “Ethanol Production Maximum” value [2] of the same molecule?
**A.** 26.14 g/L

**Q.** What about the “Ethanol Production Maximum % Control” value [2] of the same molecule?
**A.** 110.32%

**Q.** What about the Ethanol yield [2] of the same molecule?
**A.** 0.269 grams of ethanol/grams of added sugar

**Q.** What about the “Initial Growth (OD @ 24 h) % Control” value [2] of the same molecule?
**A.** 95.66%

**Q.** And the “Initial Growth (OD @ 24 h) OD” value [2]?
**A.** 3.60 OD

**Q.** What about the “Maximum Cell Density % Control” value [2] of the same molecule?
**A.** 106.51%

**Q.** And the “Maximum Cell Density OD” value [2]?
**A.** 5.40 OD

**Q.** What about the “Maximum Cell Density Time” value [2] of the same molecule?
**A.** 72.00 h

**Q.** And the Time to completion [2]?
**A.** >96 h

**Q.** What about the “Volumetric Productivity % Control (based on Avg)” value [2] of the same molecule?
**A.** 110.32%

**Q.** What about the “Volumetric Productivity % Control (based on Max)” value [2] of the same molecule?
**A.** 135.55%

**Q.** What about the “Volumetric Productivity Average” value [2] of the same molecule?
**A.** 0.272 grams ethanol/(liter)(hour)

**Q.** And the “Volumetric Productivity Maximum” value [2]?
**A.** 0.47 grams of ethanol/(liter)(hour)

**Q.** What about the “ethanol production as compared to the control” value [3] of the same molecule?
**A.** highest amount of ethanol production

**Q.** And the “initial growth and maximum cell density as compared to the control” value [3]?
**A.** increased initial growth and maximum cell density
